4 compounds from US6344451B1, “Pyrrolobenzodiazepine carboxyamide vasopressin agonists” (American Home Products, priority 1999, dated 2002) can be followed below.

The target of the test is T1, Vasopressin V2 (Rattus norvegicus, UniProt Q00788).
T1 construct: Male or female normotensive Sprague-Dawley rats; from tissue; host or cells: whole living Sprague-Dawley rat (V2 receptors of the kidney collecting ducts)
In words: Vasopressin V2 agonist effects of test compounds in normal conscious water-loaded rats. The format is in vivo. As to conditions: oral dose of 10 mg/Kg, urine collected for four hours, Sprague-Dawley (CD) rats; for Changes in Urinary Osmolality: osmolality changes expressed as percent of control; for Urine Volume (% decrease): percent decrease in urine volume vs. control. The source says:
Vasopressin V2 Agonist Effects of Test Compounds in Normal Conscious Water-Loaded Rats:
Male or female normotensive Sprague-Dawley rats (Charles River Laboratories, Inc., Kingston, N.Y.) of 350-500 g body weight were supplied with standard rodent diet (Purina Rodent Lab. Chow 5001) and water ad libitum. On the day of test, rats were placed individually into metabolic cages equipped with devices to separate the feces from the urine and containers for collection of urine. A test compound or a reference agent was given at an oral dose of 10 mg/Kg in a volume of 10 mL/Kg. The vehicle used was 20% dimethylsulfoxide (DMSO) in 2.5% preboiled corn starch. Thirty minutes after dosing the test compound, rats were gavaged with water at 30 mL/Kg into the stomach using a feeding needle. During the test, rats were not provided with water or food. Urine was collected for four hours after dosing of the test compound. At the end of four hours, urine volume was measured. Urinary osmolality was determined using a Fiske One-Ten Osmometer (Fiske Associates, Norwood, Mass., 02062) or an Advanced CRYOMATIC Osmometer, Model 3C2 (Advanced Instruments, Norwood, Mass.). Determinations of Na^+, K^+ and Cl^− ion were carried out using ion specific electrodes in a Beckman SYNCHRON EL-ISE Electrolyte System analyzer. The urinary osmolality should increase proportionally. In the screening test, two rats were used for each compound. If the difference in the urine volume of the two rats was greater than 50%, a third rat was used.

T1 sequence (Q00788 whole entry): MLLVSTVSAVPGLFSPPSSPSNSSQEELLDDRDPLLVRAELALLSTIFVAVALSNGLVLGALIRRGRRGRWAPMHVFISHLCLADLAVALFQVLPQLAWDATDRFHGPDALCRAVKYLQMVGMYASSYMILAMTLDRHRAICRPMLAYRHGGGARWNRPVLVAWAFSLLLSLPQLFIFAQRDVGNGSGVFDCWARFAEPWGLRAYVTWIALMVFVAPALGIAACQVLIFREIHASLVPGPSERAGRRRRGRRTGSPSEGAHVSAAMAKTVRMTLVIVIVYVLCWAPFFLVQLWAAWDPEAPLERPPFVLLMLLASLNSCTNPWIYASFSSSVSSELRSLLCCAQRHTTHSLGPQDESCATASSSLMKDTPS

For the compound `Cn1ccc2cc(C(=O)N3Cc4cccn4Cc4ccccc43)ccc21` [Example 1, (5H-10,11-Dihydro-pyrrolo [2,1-c][1,4]benzodiazepin-10-yl)-(1-methyl-1H-indol-5-yl)-methanone], the “Changes in Urinary Osmolality” value is 174% of control and the “Urine Volume (% decrease)” value worked out at 66 % decrease.
For `O=C(c1ccc2c(c1)OCO2)N1Cc2cccn2Cc2ccccc21` [Example 2, Benzo[1,3]dioxol-5-yl-(5H-10,11-dihydro-pyrrolo [2,1-c][1,4]benzodiazepin-10-yl)-methanone] the same measures were 41% of control and 23 % decrease.
For `O=C(c1ccc2c(c1)CCO2)N1Cc2cccn2Cc2ccccc21` [Example 3, (2,3-Dihvdro-benzofuran-5-yl)-(5H-10.11-dihydro-pyrrolo [2,1-c][1,4]benzodiazepin-10-yl)-methanone] the same measures were 10% of control and 32 % decrease.
For `O=C(c1ccc2ncsc2c1)N1Cc2cccn2Cc2ccccc21` [Example 4, (Benzothiazol-6-yl)-(5H-10,11-dihydro-pyrrolo[2,1-c][1,4]benzodiazepin-10-yl)-methanone] the same measures were 3% of control and 19 % decrease.
